{"source": "patent US20030032674A1", "about": "“Use of unsaturated fatty acids to treat severe inflammatory diseases” (priority 2001, published 2003)", "key": {"[1]": {"test_system": "iNOS expression", "test": "iNOS immunoblot in RAW 264.7 cells", "type": "cell-based, murine", "conditions": "lauric acid 1, 10, 50, 100 μM with BSA, 11 h", "method": "Cell culture—RAW 264.7 cells (a murine macrophage-like cell line, ATCC TIB-71), 293T cells (a human embryonic kidney cell line, provided by Sam Lee, Beth Israel Hospital. Boston, Mass.), and HT-29 cells (a human colon adenocarcinoma cell line, ATCC HTB-38) were cultured in Dulbecco's modified Eagle's medium (DMEM) containing 10% (v/v) heat-inactivated fetal bovine serum (FBS, Intergen) and 100 units/ml Penicillin and […] Streptomycin (GIBCO-BRL) at 37° C. in a 5% CO2/air environment. Cells (2×10^6) were plated in 60-mm dishes and cultured for an additional 18 hours to allow the number of cells to approximately double. Cells were maintained in serum-poor (0.25% FBS) medium for another 18 hours prior to the treatment with indicated reagents.\nPreparation of fatty acids-albumin complexes—All fatty acids were solubilized in ethanol, and then combined with fatty acid-free and low-endotoxin BSA at a molar ratio of 10:1 (fatty acid: albumin) in serum-poor medium (0.25% FBS). […]\nAfter 11 h, cell lysates were analyzed by COX-2, iNOS, IL-1α, or GAPDH immunoblot using a Western blot analysis.\nRAW 264.7 cells were pretested with various concentrations (5, 10, 20, and 50 μM) of docosahexaenoic acid (C22:6n-3) for 3 hours, and then stimulated with LPS (100 ng/ml) for 8 hours and analyzed by COX-2, iNOS, IL-1 a or GAPDH immunoblot."}, "[2]": {"test_system": "COX-2 promoter", "test": "COX-2 promoter luciferase reporter gene assay, transiently transfected RAW 264.7 cells", "type": "cell-based, murine", "parameters": "lauric acid-induced COX-2 expression on co-transfection of dominant-negative IkBa / lauric acid-induced COX-2 expression on co-transfection of dominant-negative PPARγ / lauric acid-induced COX-2 expression on co-transfection of dominant-negative TLR4 [DTLR4 (P712H)]: dose or concentration left out as unconfirmed", "description": "Plasmids and DNA Constructs—All plasmids and constructs were obtained or made as reported in either S. H. Rhee and D. Hwang, “Murine TOLL-like receptor 4 confers lipopolysaccaride responsiveness as determined by activation of NFκB and expression of the inducible cyclooxygenase,” Journal of Biological Chemistry, vol. 275, pp. 34035-34040 (2000); and J. Y. Lee et al., “Saturated fatty acids, but not unsaturated fatty acids, induce the expression of cyclooxygenase-2 mediated through TOLL-like receptor 4,” Journal of Biological Chemistry, vol. 276, pp. 16683-16689 (2001). Briefly, the luciferase reporter plasmids (pGL2) containing the promoter region of the murine COX-2 gene (−3201/+93 or −1017/+93) were provided by David Dewitt (Michigan State University, East Lansing, Mich.). To prepare the wild-type COX-2 promoter fragment, polymerase chain reaction (PCR) was performed with the primers named Kpn-COX2-For and Hind-COX2-Rev using the murine COX-2 (−1017/+93) luciferase reporter plasmid as a template. To prepare the mutant COX-2 promoter fragment containing mutated NFκB site, Kpn-COX2-Fmut and Hind-COX2-Rev were used as primers. Each PCR fragment was inserted into the KpnI and HindIII sites of pGL2 to generate the wild-type or mutant COX-2 (−410/+86) luciferase reporter constructs, respectively. Sequences for wild-type NFκB site and the primers were used as reported elsewhere. (See Lee et al., 2001). The 2×NFκB-luciferase reporter construct was a gift from Frank Mercurio (Signal Pharmaceuticals, San Diego, Calif.). HSP70-β-galactosidase reporter plasmid was a gift from Robert Modlin (University of California, Los Angeles, Calif.). The expression plasmids for a constitutively active form of TLR4 (DTLR4) and a dominant-negative mutant, DTLR4 (P712H) were prepared as previously described. See S. H. Rhee et al., 2000. The expression plasmid of the wild-type NFκB-inducing kinase (NIK), pRK-NIK(wt) was a gift from Mike Rothe (Tularik, South San Francisco, Calif.). The dominant-negative mutant of inhibitor kB (pCMV4-IkBa(DN)) was provided by Dean Ballard (Vanderbilt University, Nashville, Tenn.). 4×NFκB-luciferase reporter construct was purchased from Clontech (Palo Alto, Calif.) and used for transient transfection. Heat shock protein 70 (HSP70)-β-galactosidase reporter plasmid was from Robert Modlin (University of Calif., Los Angeles, Calif.). The expression plasmids for a wild-type TLR2 and a dominant-negative mutant [TLR2 (P681H)] were from C. B. Wilson (University of Washington, Seattle, Wash.). Constitutively active chimeric CD4-TLR4 was obtained from C. A. Janeway, Jr. (Yale University, New Haven, Conn.). The constitutively active form of MyD88 (MyD88(ΔToll)) and the dominant-negative mutant, MyD88(ΔDD) were kindly provided by Jurg Tschopp (University of Lausanne, Switzerland). The dominant-negative mutant of mouse PPARg [pCMX-PPARg(L466A/L467A)] was a gift from Ira Schulman (Ligand Pharmaceuticals, San Diego, Calif.). All DNA constructs were prepared in large scale using the EndoFree Plasmid Maxi kit (Qiagen, Chatsworth, Calif.) for transfection.\nTransient transfection and luciferase assay—These procedures were performed as described in S. H. Rhee et al., “Murine TOLL-like receptor 4 confers lipopolysaccharide responsiveness as determined by activation of NFκB and expression of the inducible cyclooxygenase,” J. Biol. Chem., vol. 275, pp. 34035-34040 (2000); and J. H. Paik et al., “Two opposing effects of non-steroidal anti-inflammatory drugs on the expression of the inducible cyclooxygenase, Mediation through different signaling pathways,” J. Biol. Chem., vol. 275, pp. 28173-28179 (2000). Briefly, RAW 264.7 cells were plated in 6-well plates (5×10^5 cells/well) and transfected with luciferase reporter plasmids and HSP70-β-galactosidase plasmid as an internal control using SuperFect transfect reagent (Quiagen) according to the manufacturer's instructions. […]"}}, "data": [{"smiles": "CCCCCCCCCCCC(=O)O", "note": "[lauric acid]", "values": [{"measurement": "iNOS expression induced by fatty acid (immunoblot)", "setting": "[1]", "value": "induced"}, {"measurement": "lauric acid-induced COX-2 expression on co-transfection of dominant-negative IkBa", "setting": "[2]; 24 hours", "value": "inhibited"}, {"measurement": "lauric acid-induced COX-2 expression on co-transfection of dominant-negative TLR4 [DTLR4 (P712H)]", "setting": "[2]; 24 hours", "value": "inhibits"}, {"measurement": "lauric acid-induced COX-2 expression on co-transfection of dominant-negative PPARγ", "setting": "[2]; 24 hours, with or without PPRE-like sequences", "value": "not altered"}, {"measurement": "lauric acid-induced COX-2 expression, promoter with mutated NFκB site vs wild-type site", "setting": "[2]; COX-2 promoter reporter with mutated NFκB site", "value": "significantly reduced"}]}]}
